Laboratory results from patent US10168342B2, “Lipid probes and uses thereof” (THE SCRIPPS RESEARCH INSTITUTE, priority 2015, dated 2019).
Where two headings read alike, the source gives them in different places.

Tests used:
[1] = molecular target: T1, AEA-DA lipid probe targets in Neuro2a cells (Mus musculus, UniProt P15626)
T1 sequence (P15626 1-218): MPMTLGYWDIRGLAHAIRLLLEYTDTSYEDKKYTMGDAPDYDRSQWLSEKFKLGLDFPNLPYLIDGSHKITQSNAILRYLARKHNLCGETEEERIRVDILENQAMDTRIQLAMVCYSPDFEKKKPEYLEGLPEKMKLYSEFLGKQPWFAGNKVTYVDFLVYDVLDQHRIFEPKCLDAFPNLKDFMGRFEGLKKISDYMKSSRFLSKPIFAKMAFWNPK

[2] = molecular target: T2, AEA-DA lipid probe targets in Neuro2a cells (Mus musculus, UniProt Q9D1D4)
T2 sequence (Q9D1D4 32-219): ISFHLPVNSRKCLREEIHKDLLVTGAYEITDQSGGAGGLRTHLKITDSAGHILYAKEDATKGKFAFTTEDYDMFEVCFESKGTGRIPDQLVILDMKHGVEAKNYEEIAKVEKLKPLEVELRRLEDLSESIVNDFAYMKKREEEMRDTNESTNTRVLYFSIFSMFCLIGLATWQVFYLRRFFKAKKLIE

[3] = molecular target: AEA-DA lipid probe targets in Neuro2a cells (Mus musculus, UniProt P60229)
[4] = molecular target: AEA-DA lipid probe targets in Neuro2a cells (Mus musculus, UniProt Q8BWM0)
[5] = molecular target: T3, AEA-DA lipid probe targets in Neuro2a cells (Mus musculus, UniProt Q80UU9); settings: for SILAC ratio, PGRMC2 (Q80UU9): Neuro2a cells, AEA-DA probe
T3 sequence (Q80UU9 1-217): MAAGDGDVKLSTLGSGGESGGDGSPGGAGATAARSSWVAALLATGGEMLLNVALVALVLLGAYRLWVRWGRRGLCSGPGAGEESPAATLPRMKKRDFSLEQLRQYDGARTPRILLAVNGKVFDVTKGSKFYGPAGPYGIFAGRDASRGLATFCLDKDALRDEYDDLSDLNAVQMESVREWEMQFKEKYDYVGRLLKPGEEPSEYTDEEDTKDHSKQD

[6] = molecular target: T4, AEA-DA lipid probe targets in Neuro2a cells (Mus musculus, UniProt P09103)
T4 sequence (P09103 20-509): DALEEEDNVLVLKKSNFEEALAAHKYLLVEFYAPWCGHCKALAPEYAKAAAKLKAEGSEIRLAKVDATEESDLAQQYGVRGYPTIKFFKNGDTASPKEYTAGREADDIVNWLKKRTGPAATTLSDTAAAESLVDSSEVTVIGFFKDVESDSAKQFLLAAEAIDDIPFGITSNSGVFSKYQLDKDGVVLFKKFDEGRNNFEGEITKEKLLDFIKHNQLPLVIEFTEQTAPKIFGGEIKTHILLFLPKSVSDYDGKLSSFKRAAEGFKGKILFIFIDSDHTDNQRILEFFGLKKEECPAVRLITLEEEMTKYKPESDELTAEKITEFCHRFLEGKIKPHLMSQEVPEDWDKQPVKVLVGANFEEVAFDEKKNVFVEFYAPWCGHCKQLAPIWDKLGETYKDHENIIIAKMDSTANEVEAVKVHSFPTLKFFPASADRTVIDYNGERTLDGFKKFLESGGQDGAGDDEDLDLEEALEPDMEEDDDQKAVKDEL

[7] = molecular target: T5, AEA-DA lipid probe targets in Neuro2a cells (Mus musculus, UniProt Q3KNM2); settings: for SILAC ratio, MARCH5 (Q3KNM2): Neuro2a cells, AEA-DA probe
T5 sequence (Q3KNM2 1-278): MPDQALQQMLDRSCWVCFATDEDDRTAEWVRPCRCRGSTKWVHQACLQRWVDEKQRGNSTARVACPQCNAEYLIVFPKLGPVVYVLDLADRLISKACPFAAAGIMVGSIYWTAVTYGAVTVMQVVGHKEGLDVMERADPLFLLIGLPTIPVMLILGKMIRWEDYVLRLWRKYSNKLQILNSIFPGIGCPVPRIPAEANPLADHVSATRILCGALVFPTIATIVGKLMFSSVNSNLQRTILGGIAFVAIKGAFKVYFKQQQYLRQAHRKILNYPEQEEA

[8] = molecular target: T6, AEA-DA lipid probe targets in Neuro2a cells (Mus musculus, UniProt Q8JZN5)
T6 sequence (Q8JZN5 42-625): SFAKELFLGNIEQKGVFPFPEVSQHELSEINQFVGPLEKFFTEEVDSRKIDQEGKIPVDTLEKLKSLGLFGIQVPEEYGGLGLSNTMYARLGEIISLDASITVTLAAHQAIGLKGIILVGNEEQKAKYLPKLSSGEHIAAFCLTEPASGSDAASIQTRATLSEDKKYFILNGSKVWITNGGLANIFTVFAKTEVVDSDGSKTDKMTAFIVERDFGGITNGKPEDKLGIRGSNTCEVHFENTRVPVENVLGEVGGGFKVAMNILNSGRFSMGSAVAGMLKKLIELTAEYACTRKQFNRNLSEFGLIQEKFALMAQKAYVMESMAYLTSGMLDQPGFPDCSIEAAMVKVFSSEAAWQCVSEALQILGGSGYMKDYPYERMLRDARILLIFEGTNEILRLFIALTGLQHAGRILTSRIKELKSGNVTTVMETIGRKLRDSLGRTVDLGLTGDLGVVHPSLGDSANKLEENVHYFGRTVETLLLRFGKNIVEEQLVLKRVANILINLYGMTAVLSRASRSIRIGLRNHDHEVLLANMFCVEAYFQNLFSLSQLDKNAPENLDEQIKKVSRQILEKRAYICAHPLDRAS

AEA-DA lipid probe targets in Neuro2a cells (Mus musculus, UniProt P60229), sequence (P60229 whole entry): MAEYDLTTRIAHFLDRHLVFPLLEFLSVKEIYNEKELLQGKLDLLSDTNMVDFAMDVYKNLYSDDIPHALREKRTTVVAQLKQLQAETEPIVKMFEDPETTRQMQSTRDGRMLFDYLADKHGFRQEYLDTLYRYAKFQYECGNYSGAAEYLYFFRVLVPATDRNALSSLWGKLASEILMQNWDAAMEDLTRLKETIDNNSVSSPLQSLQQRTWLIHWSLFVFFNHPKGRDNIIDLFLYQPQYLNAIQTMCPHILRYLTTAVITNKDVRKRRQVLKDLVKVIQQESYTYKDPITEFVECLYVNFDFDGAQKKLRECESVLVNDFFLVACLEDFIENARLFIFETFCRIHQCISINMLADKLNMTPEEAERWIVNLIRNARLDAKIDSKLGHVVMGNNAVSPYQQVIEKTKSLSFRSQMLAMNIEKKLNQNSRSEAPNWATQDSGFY
AEA-DA lipid probe targets in Neuro2a cells (Mus musculus, UniProt Q8BWM0), sequence (Q8BWM0 whole entry): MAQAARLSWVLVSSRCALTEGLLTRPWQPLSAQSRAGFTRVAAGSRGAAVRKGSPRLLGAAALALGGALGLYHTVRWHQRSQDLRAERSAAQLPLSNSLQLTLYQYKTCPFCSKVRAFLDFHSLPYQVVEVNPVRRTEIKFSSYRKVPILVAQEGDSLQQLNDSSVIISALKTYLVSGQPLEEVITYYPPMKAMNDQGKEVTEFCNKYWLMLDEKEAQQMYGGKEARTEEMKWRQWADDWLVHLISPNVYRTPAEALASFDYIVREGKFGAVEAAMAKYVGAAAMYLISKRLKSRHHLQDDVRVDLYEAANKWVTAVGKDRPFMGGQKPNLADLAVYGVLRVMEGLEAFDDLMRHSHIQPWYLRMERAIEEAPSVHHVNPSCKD

CCCCC/C=C\C/C=C\C/C=C\C/C=C\CCCC(=O)NCCO [AEA, anandamide, reference compound]
SILAC ratio, Gstm2 ([1]; competitor 200 μM): 2.7 | SILAC ratio, Tmed10 ([2]; competitor 200 μM): 1.5 | SILAC ratio Eif3e ([3]; competitor 200 μM): 1.2 | SILAC ratio, Ptges2 ([4]; competitor 200 μM): 2.1 | SILAC ratio, PGRMC2 (Q80UU9) ([5]; competitor 200 μM): 2.0 | SILAC ratio, Pgrmc2 ([5]; competitor 200 μM): 2.0 | SILAC ratio P4hb ([6]; competitor 200 μM): 1.2

O=C(/C=C/c1cccnc1)NCCCCC1CCN(C(=O)c2ccccc2)CC1 [FK-866, reference compound]
SILAC ratio, MARCH5 (Q3KNM2) ([7]; competitor 25 μM): 1.3 | SILAC ratio, March5 ([7]; competitor 25 μM): 1.3 | SILAC ratio, Gstm2 ([1]; competitor 25 μM): 1.5 | SILAC ratio, Tmed10 ([2]; competitor 25 μM): 1.1 | SILAC ratio Eif3e ([3]; competitor 25 μM): 1.1 | SILAC ratio, Ptges2 ([4]; competitor 25 μM): 1.4 | SILAC ratio, PGRMC2 (Q80UU9) ([5]; competitor 25 μM): 1.2 | SILAC ratio, Pgrmc2 ([5]; competitor 25 μM): 1.2 | SILAC ratio P4hb ([6]; competitor 25 μM): 1.4 | SILAC ratio Acad9 ([8]; competitor 25 μM): 1.2

CN1CCN(C(=O)c2c(-c3ccccc3)c3cc([N+](=O)[O-])ccc3n2C)CC1 [KML110, (1-Methyl-5-nitro-3-phenyl-1H-indol-2-yl)(4-methylpiperazin-1-yl)methanone]
SILAC ratio, March5 ([7]; competitor 25 μM): 1.5 | SILAC ratio, Tmed10 ([2]; competitor 25 μM): 1.2 | SILAC ratio Eif3e ([3]; competitor 25 μM): 1.4 | SILAC ratio, Ptges2 ([4]; competitor 25 μM): 1.8 | SILAC ratio, Pgrmc2 ([5]; competitor 25 μM): 1.6 | SILAC ratio P4hb ([6]; competitor 25 μM): 1.8 | SILAC ratio Acad9 ([8]; competitor 25 μM): 1.7

CN1CCN(C(=O)c2[nH]c3ccc([N+](=O)[O-])cc3c2-c2ccccc2)CC1 [MJN228, (4-Methylpiperazin-1-yl)(5-nitro-3-phenyl-1H-indol-2-yl)methanone]
SILAC ratio, MARCH5 (Q3KNM2) ([7]; competitor 25 μM): 1.1 | SILAC ratio, March5 ([7]; competitor 10 μM): 1.1 | SILAC ratio, March5 ([7]; competitor 25 μM): 1.1 | SILAC ratio, March5 ([7]; competitor 50 μM): 1.0 | SILAC ratio, March5 ([7]; competitor 100 μM): 1.1 | SILAC ratio, Gstm2 ([1]; competitor 10 μM): 1.6 | SILAC ratio, Gstm2 ([1]; competitor 25 μM): 1.6 | SILAC ratio, Gstm2 ([1]; competitor 100 μM): 2.2 | SILAC ratio, Tmed10 ([2]; competitor 10 μM): 1.1 | SILAC ratio, Tmed10 ([2]; competitor 25 μM): 1.4 | SILAC ratio, Tmed10 ([2]; competitor 50 μM): 1.5 | SILAC ratio, Tmed10 ([2]; competitor 100 μM): 1.6 | SILAC ratio Eif3e ([3]; competitor 10 μM): 1.1 | SILAC ratio Eif3e ([3]; competitor 25 μM): 1.1 | SILAC ratio Eif3e ([3]; competitor 50 μM): 1.0 | SILAC ratio Eif3e ([3]; competitor 100 μM): 1.0 | SILAC ratio, Ptges2 ([4]; competitor 10 μM): 1.3 | SILAC ratio, Ptges2 ([4]; competitor 25 μM): 1.4 | SILAC ratio, Ptges2 ([4]; competitor 100 μM): 2.3 | SILAC ratio, PGRMC2 (Q80UU9) ([5]; competitor 25 μM): 1.5 | SILAC ratio, Pgrmc2 ([5]; competitor 10 μM): 1.2 | SILAC ratio, Pgrmc2 ([5]; competitor 25 μM): 1.5 | SILAC ratio, Pgrmc2 ([5]; competitor 50 μM): 1.7 | SILAC ratio, Pgrmc2 ([5]; competitor 100 μM): 2.0 | SILAC ratio P4hb ([6]; competitor 10 μM): 1.3 | SILAC ratio P4hb ([6]; competitor 25 μM): 1.5 | SILAC ratio P4hb ([6]; competitor 50 μM): 2.0 | SILAC ratio P4hb ([6]; competitor 100 μM): 2.2 | SILAC ratio Acad9 ([8]; competitor 10 μM): 1.4 | SILAC ratio Acad9 ([8]; competitor 25 μM): 1.2 | SILAC ratio Acad9 ([8]; competitor 50 μM): 1.4 | SILAC ratio Acad9 ([8]; competitor 100 μM): 1.4

C=CCN(C)CCCCCCOc1ccc(C(=O)c2ccc(Br)cc2)c(F)c1 [Ro 48-8071, reference compound]
SILAC ratio, MARCH5 (Q3KNM2) ([7]; competitor 25 μM): 1.1 | SILAC ratio, March5 ([7]; competitor 25 μM): 1.1 | SILAC ratio, Gstm2 ([1]; competitor 25 μM): 1.3 | SILAC ratio, Tmed10 ([2]; competitor 25 μM): 1.0 | SILAC ratio Eif3e ([3]; competitor 25 μM): 0.8 | SILAC ratio, Ptges2 ([4]; competitor 25 μM): 1.3 | SILAC ratio, PGRMC2 (Q80UU9) ([5]; competitor 25 μM): 1.3 | SILAC ratio, Pgrmc2 ([5]; competitor 25 μM): 1.3 | SILAC ratio P4hb ([6]; competitor 25 μM): 1.0 | SILAC ratio Acad9 ([8]; competitor 25 μM): 1.3
